Experimental data from the kinase profiling compilation of Christmann-Franck et al. (2016).
Values joined by “and” are separate entries in the source; they are usually repeats but may differ in a detail not shown here. Identical values can stand only once.

Assays:
Assay in all cases: KINOMEscan competition binding
Details in all cases: compound 1.0 µM
[1] = molecular target: STK10 (human) (UniProt O94804)
[2] = test system: EGFR (human), P00533 [746-750 del]
[3] = molecular target: BMPR1A (human) (UniProt P36894)
[4] = molecular target: CAMKK2 (human) (UniProt Q96RR4)
[5] = molecular target: MARK1 (human) (UniProt Q9P0L2)
[6] = molecular target: MAPK10 (human) (UniProt P53779)
[7] = molecular target: STK24 (human) (UniProt Q9Y6E0)
[8] = molecular target: RPS6KA2 KD1 (human) (UniProt Q15349)
[9] = molecular target: CAMK2A (human) (UniProt Q9UQM7)
[10] = test system: ABL1 (human), P00519 [M351T]
[11] = molecular target: RIOK1 (human) (UniProt Q9BRS2)
[12] = molecular target: CDC42BPB (human) (UniProt Q9Y5S2)
[13] = molecular target: STK38 (human) (UniProt Q15208)
[14] = molecular target: SIK1 (human) (UniProt P57059)
[15] = molecular target: MAPK11 (human) (UniProt Q15759)
[16] = molecular target: PDGFRA (human) (UniProt P16234)
[17] = molecular target: ADCK3 (human) (UniProt Q8NI60)
[18] = molecular target: ITK (human) (UniProt Q08881)
[19] = molecular target: HIPK2 (human) (UniProt Q9H2X6)
[20] = molecular target: PAK2 (human) (UniProt Q13177)
[21] = test system: EIF2AK4 KD2 (human), Q9P2K8 [S808G]
[22] = test system: FLT3 (human), P36888 [D835H]
[23] = molecular target: CDK19 (human) (UniProt Q9BWU1)
[24] = molecular target: DYRK1A (human) (UniProt Q13627)
[25] = molecular target: LCK (human) (UniProt P06239)
[26] = molecular target: GRK4 (human) (UniProt P32298)
[27] = molecular target: MST1R (human) (UniProt Q04912)
[28] = molecular target: BTK (human) (UniProt Q06187)
[29] = molecular target: TAOK1 (human) (UniProt Q7L7X3)
[30] = molecular target: HIPK3 (human) (UniProt Q9H422)
[31] = test system: EGFR (human), P00533 [752-759 del]
[32] = molecular target: BMPR1B (human) (UniProt O00238)
[33] = molecular target: CAMK2G (human) (UniProt Q13555)
[34] = molecular target: ACVR1B (human) (UniProt P36896)
[35] = test system: ABL1 (human), P00519 [Q252H]
[36] = molecular target: EPHB3 (human) (UniProt P54753)
[37] = molecular target: MATK (human) (UniProt P42679)
[38] = molecular target: MAP3K4 (human) (UniProt Q9Y6R4)
[39] = molecular target: EPHB1 (human) (UniProt P54762)
[40] = molecular target: INSRR (human) (UniProt P14616)

Sequence of TAOK1 (human) (Q7L7X3 whole entry, looked up): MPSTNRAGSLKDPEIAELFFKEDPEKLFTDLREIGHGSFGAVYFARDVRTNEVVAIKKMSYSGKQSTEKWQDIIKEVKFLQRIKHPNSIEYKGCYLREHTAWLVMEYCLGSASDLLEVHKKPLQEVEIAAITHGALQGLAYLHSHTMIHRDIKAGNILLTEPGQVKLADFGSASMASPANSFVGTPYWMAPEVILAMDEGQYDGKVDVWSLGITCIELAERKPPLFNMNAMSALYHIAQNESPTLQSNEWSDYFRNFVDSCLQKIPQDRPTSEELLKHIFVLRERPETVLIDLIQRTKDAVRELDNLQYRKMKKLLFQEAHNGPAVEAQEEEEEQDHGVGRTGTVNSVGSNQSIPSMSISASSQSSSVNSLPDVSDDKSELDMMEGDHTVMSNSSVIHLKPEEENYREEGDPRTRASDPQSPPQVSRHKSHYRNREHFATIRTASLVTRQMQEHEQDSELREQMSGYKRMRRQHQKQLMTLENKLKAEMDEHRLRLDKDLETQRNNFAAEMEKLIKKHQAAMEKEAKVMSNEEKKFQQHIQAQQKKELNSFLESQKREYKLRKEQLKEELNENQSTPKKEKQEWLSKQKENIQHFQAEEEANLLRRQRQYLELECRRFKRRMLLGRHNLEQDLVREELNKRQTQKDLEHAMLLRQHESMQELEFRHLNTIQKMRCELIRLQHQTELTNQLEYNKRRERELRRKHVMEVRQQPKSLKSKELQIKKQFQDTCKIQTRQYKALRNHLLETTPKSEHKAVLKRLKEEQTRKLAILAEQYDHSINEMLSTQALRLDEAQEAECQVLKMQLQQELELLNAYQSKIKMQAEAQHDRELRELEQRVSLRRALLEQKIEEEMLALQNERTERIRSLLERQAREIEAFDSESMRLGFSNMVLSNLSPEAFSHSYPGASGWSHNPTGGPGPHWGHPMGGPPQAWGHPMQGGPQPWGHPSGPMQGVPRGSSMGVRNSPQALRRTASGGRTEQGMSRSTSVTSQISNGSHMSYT
Sequence of STK24 (human) (Q9Y6E0 whole entry, looked up): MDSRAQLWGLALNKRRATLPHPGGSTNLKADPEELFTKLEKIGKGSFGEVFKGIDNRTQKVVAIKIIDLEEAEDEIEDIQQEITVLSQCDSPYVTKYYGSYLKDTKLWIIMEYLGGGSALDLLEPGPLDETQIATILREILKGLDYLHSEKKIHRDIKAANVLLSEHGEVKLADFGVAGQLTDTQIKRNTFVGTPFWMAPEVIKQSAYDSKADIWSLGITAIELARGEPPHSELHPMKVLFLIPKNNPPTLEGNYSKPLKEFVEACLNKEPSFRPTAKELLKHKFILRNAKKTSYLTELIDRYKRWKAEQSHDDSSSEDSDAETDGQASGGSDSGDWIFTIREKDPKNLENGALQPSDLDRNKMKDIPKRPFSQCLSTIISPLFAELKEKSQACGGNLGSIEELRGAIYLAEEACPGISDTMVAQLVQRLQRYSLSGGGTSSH
Sequence of LCK (human) (P06239 whole entry, looked up): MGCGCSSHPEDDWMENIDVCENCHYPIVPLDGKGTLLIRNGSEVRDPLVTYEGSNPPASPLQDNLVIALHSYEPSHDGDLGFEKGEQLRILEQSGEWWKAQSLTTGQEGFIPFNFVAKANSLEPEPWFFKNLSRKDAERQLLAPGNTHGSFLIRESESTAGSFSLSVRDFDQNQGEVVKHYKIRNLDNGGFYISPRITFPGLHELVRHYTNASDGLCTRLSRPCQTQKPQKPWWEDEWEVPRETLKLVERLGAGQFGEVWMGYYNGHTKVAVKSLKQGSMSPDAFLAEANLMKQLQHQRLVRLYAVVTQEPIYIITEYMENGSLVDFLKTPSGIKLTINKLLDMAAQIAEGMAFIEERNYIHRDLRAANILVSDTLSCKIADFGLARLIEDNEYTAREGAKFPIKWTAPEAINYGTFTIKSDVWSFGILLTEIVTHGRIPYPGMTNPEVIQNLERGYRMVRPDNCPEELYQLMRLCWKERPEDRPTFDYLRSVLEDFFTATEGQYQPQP
Sequence of MARK1 (human) (Q9P0L2 whole entry, looked up): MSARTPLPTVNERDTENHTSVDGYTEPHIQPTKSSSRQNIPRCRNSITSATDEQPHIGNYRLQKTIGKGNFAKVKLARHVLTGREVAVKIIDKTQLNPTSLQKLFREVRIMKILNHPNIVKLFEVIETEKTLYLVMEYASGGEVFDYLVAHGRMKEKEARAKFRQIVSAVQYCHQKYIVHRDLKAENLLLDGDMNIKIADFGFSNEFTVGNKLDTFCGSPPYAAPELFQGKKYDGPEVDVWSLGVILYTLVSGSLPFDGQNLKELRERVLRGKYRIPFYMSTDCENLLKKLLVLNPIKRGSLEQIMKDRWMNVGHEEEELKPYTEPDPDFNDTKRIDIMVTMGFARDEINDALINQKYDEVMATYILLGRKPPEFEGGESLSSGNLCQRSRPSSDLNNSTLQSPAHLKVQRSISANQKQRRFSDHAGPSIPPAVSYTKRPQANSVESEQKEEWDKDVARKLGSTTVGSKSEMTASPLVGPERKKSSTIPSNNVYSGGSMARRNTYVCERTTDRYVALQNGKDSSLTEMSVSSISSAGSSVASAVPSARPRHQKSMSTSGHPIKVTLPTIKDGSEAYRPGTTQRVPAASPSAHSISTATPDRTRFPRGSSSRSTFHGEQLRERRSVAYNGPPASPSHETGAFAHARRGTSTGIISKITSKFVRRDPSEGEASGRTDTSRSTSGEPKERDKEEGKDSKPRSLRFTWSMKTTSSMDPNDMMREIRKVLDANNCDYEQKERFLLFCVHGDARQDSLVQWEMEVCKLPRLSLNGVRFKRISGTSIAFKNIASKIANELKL
Sequence of MAP3K4 (human) (Q9Y6R4 whole entry, looked up): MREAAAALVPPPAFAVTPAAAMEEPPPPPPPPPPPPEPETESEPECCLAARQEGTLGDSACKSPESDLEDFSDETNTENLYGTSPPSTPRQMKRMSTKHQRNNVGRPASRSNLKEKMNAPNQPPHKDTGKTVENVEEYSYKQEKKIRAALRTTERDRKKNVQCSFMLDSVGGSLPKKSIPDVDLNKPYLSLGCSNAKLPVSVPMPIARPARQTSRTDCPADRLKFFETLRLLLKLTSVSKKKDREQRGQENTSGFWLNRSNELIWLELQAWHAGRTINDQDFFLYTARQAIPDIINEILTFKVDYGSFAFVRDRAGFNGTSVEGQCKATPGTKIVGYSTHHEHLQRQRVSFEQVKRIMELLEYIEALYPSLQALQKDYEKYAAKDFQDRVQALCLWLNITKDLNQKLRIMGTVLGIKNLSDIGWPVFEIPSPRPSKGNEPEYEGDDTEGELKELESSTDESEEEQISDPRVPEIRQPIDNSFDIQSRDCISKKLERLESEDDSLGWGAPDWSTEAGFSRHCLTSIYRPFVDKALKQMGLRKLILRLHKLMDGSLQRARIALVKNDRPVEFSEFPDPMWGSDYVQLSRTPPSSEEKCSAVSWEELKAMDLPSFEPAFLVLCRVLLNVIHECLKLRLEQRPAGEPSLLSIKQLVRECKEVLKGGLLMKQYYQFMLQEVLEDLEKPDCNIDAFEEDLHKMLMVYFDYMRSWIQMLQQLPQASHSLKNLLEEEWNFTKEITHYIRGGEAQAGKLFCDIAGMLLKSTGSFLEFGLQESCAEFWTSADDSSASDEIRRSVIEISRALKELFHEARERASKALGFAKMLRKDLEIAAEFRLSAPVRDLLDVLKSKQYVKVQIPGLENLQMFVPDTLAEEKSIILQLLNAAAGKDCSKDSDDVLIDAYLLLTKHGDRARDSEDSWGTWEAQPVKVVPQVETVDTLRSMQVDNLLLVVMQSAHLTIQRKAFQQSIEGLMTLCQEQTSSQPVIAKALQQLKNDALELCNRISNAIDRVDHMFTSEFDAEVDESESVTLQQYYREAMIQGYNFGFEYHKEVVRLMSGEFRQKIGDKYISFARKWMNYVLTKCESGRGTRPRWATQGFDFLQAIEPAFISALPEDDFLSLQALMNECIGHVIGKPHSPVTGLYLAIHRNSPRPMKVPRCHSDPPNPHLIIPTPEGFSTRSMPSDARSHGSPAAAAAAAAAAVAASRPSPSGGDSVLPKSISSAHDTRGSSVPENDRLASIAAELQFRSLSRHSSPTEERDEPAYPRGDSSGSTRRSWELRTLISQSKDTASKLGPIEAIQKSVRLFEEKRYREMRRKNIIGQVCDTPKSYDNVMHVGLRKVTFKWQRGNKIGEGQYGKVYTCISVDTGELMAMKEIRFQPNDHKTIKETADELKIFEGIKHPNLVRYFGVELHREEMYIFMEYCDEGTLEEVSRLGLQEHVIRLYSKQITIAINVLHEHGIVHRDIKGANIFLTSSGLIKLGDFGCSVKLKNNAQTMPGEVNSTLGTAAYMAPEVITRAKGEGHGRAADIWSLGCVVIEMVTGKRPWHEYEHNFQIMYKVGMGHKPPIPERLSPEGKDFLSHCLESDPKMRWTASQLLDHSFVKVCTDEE
Sequence of BTK (human) (Q06187 whole entry, looked up): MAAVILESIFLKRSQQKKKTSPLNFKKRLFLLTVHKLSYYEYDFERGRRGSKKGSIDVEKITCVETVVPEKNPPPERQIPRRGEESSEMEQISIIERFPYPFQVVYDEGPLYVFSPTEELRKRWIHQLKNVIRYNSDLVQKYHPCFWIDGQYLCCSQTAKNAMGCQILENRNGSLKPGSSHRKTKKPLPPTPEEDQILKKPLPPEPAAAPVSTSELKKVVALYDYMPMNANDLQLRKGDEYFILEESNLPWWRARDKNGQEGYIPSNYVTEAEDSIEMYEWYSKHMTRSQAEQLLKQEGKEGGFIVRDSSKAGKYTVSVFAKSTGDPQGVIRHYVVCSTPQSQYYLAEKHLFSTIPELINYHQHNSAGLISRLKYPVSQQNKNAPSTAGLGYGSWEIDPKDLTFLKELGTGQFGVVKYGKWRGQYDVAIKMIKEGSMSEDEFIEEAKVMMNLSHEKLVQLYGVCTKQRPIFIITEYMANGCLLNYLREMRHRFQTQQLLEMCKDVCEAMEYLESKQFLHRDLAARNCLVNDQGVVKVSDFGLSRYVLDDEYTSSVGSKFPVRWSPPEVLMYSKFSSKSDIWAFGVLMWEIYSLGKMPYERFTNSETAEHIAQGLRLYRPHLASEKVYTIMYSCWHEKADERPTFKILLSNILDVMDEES

## Nc1cc(C(F)(F)F)c(-c2cc(N3CCOCC3)nc(N3CCOCC3)n2)cn1
[1]
  inhibition of binding: 4%
[2]
  inhibition of binding: 0%
[3]
  inhibition of binding: 0%
[4]
  inhibition of binding: 0%
[5]
  inhibition of binding: 0%
[6]
  inhibition of binding: 17%
[7]
  inhibition of binding: 5%
[8]
  inhibition of binding: 2%
[9]
  inhibition of binding: 2%
[10]
  inhibition of binding: 0%
[11]
  inhibition of binding: 11%
[12]
  inhibition of binding: 0%
[13]
  inhibition of binding: 1%
[14]
  inhibition of binding: 0%
[15]
  inhibition of binding: 0%
[16]
  inhibition of binding: 11%
[17]
  inhibition of binding: 4%
[18]
  inhibition of binding: 0%
[19]
  inhibition of binding: 0%
[20]
  inhibition of binding: 17%
[21]
  inhibition of binding: 35%
[22]
  inhibition of binding: 2%
[23]
  inhibition of binding: 0%
[24]
  inhibition of binding: 11%
[25]
  inhibition of binding: 0%
[26]
  inhibition of binding: 0%
[27]
  inhibition of binding: 0%
[28]
  inhibition of binding: 6%
[29]
  inhibition of binding: 0% and 2%
[30]
  inhibition of binding: 0%
[31]
  inhibition of binding: 0%
[32]
  inhibition of binding: 0%
[33]
  inhibition of binding: 0%
[34]
  inhibition of binding: 3%
[35]
  inhibition of binding: 0%
[36]
  inhibition of binding: 4%
[37]
  inhibition of binding: 28%
[38]
  inhibition of binding: 1%
[39]
  inhibition of binding: 0%
[40]
  inhibition of binding: 0%
